Results from US9993479B2, “Trk-inhibiting compound” (ONO PHARMACEUTICAL CO., LTD., priority 2013, dated 2018).

The compounds below were run on sodium monoiodoacetate-induced model rats (assay: Analgesic effect on sodium monoiodoacetate-induced model rats). Conditions: MIA-induced model rats; test substance 0.1, 0.3 or 1 mg/kg orally twice a day day 14-23 and 3 h before measurement on day 24; Table 7 (positive control tramadol).
Type: in vivo, rat

Compared with `Nc1ncc(Cl)cc1-c1ccc(Oc2ncc(NC(=O)Nc3cc(C(F)(F)F)ccc3-n3cccn3)cn2)cc1` [Example 7, 1-(2-(1H-pyrazol-1-yl)-5-(trifluoromethyl)phenyl)-3-(2-(4-(2-amino-5-chloropyridin-3-yl)phenoxy)pyrimidin-5-yl)urea], `Cc1cn(-c2ccc(C(F)(F)F)cc2NC(=O)Nc2cnc(Oc3ccc(-c4cc(Cl)cnc4N)cc3)nc2)nn1` [Example 8-1, 1-(2-(4-(2-amino-5-chloropyridin-3-yl)phenoxy)pyrimidin-5-yl)-3-(2-(4-methyl-1H-1,2,3-triazol-1-yl)-5-(trifluoromethyl)phenyl)urea] is lower in “Percent improvement (%)” value: 61% for the first, 60% for the second.

First: Nc1ncc(F)cc1-c1ccc(Oc2ncc(NC(=O)Nc3cc(C(F)(F)F)ccc3-n3ccnn3)cn2)cc1 [Example 14-5, 1-(2-(1H-1,2,3-triazol-1-yl)-5-(trifluoromethyl)phenyl)-3-(2-(4-(2-amino-5-fluoropyridin-3-yl)phenoxy)pyrimidin-5-yl)urea]
Second: Nc1ncc(Cl)cc1-c1ccc(Oc2ncc(NC(=O)Nc3ccc(C(F)(F)F)cc3Cl)cn2)cc1 [Example 15-6, 1-(2-(4-(2-amino-5-chloropyridin-3-yl)phenoxy)pyrimidin-5-yl)-3-(2-chloro-4-(trifluoromethyl)phenyl)urea]
The “Percent improvement (%)” value of the first is lower: 47% for the first, 51% for the second.

First: COc1ccn2ncc(-c3ccc(Oc4ncc(NC(=O)Nc5cc(C(F)(F)F)ccc5-c5cccnc5)cn4)cc3)c2n1 [Example 21-9, 1-(2-(4-(5-methoxypyrazolo[1,5-a]pyrimidin-3-yl)phenoxy)pyrimidin-5-yl)-3-(2-(pyridin-3-yl)-5-(trifluoromethyl)phenyl)urea]
Second: O=C(Nc1cnc(Oc2ccc(-c3cnn4cccnc34)cc2)nc1)Nc1cc(C(F)(F)F)ccc1-c1cccnc1 [Example 21-13, 1-(2-(4-(pyrazolo[1,5-a]pyrimidin-3-yl)phenoxy)pyrimidin-5-yl)-3-(2-(pyridin-3-yl)-5-(trifluoromethyl)phenyl)urea]
The “Percent improvement (%)” value of the first is lower: 64% for the first, 66% for the second.

Same assay, conditions: MIA-induced model rats; test substance 0.1, 0.3 or 1 mg/kg orally twice a day day 14-23 and 3 h before measurement on day 24; Table 8 (positive control morphine)

Going from `Nc1ncc(F)cc1-c1ccc(Oc2ncc(NC(=O)Nc3cc(C(F)(F)F)ccc3-c3cccnc3)cn2)cc1` [Example 14-6, 1-(2-(4-(2-amino-5-fluoropyridin-3-yl)phenoxy)pyrimidin-5-yl)-3-(2-(pyridin-3-yl)-5-(trifluoromethyl)phenyl)urea] to `Nc1ncc(Cl)cc1-c1ccc(Oc2ncc(NC(=O)Nc3cc(C(F)(F)F)ccc3-c3ccccc3)cn2)cc1` [Example 15-55, 1-{2-[4-(2-amino-5-chloro-3-pyridinyl)phenoxy]-5-pyrimidinyl}-3-[4-(trifluoromethyl)-2-biphenylyl]urea], the “Percent improvement (%)” value rises from 53% to 62%.

First: Nc1ncc(C(F)(F)F)cc1-c1ccc(Oc2ncc(NC(=O)Nc3cc(C(F)(F)F)ccc3-n3ccc(C(F)(F)F)n3)cn2)cc1 [Example 15-52, 1-(2-{4-[2-amino-5-(trifluoromethyl)-3-pyridinyl]phenoxy}-5-pyrimidinyl)-3-{5-(trifluoromethyl)-2-[3-(trifluoromethyl)-1H-pyrazol-1-yl]phenyl}urea]
Second: Nc1ncc(C(F)(F)F)cc1-c1ccc(Oc2ncc(NC(=O)Nc3cc(C(F)(F)F)ccc3-n3cc(Cl)cn3)cn2)cc1 [Example 15-87, 1-(2-{4-[2-amino-5-(trifluoromethyl)-3-pyridinyl]phenoxy}-5-pyrimidinyl)-3-[2-(4-chloro-1H-pyrazol-1-yl)-5-(trifluoromethyl)phenyl]urea]
The “Percent improvement (%)” value of the first is higher: 60% for the first, 57% for the second.

Going from `Nc1ncc(Cl)cc1-c1ccc(Oc2ncc(NC(=O)Nc3cc(C(F)(F)F)ccc3-n3cc(Cl)cn3)cn2)cc1` [Example 15-63, 1-{2-[4-(2-amino-5-chloro-3-pyridinyl)phenoxy]-5-pyrimidinyl}-3-[2-(4-chloro-1H-pyrazol-1-yl)-5-(trifluoromethyl)phenyl]urea] to `CS(=O)(=O)c1ccc(C(F)(F)F)cc1NC(=O)Nc1cnc(Oc2ccc(-c3cc(Cl)cnc3N)cc2)nc1` [Example 15-104, 1-{2-[4-(2-amino-5-chloro-3-pyridinyl)phenoxy]-5-pyrimidinyl}-3-[2-(methylsulfonyl)-5-(trifluoromethyl)phenyl]urea], the “Percent improvement (%)” value rises from 53% to 54%.

Compared with `Nc1ncc(Cl)cc1-c1ccc(Oc2ncc(NC(=O)Nc3ccc(C(F)(F)F)cc3C(F)(F)F)cn2)cc1` [Example 15-77, 1-{2-[4-(2-amino-5-chloro-3-pyridinyl)phenoxy]-5-pyrimidinyl}-3-[2,4-bis(trifluoromethyl)phenyl]urea], `CS(=O)(=O)c1ccc(C(F)(F)F)cc1NC(=O)Nc1cnc(Oc2ccc(-c3cc(C(F)(F)F)cnc3N)cc2)nc1` [Example 15-98, 1-(2-{4-[2-amino-5-(trifluoromethyl)-3-pyridinyl]phenoxy}-5-pyrimidinyl)-3-[2-(methylsulfonyl)-5-(trifluoromethyl)phenyl]urea] is higher in “Percent improvement (%)” value: 55% for the first, 57% for the second.

First: CN(C)c1ccn2ncc(-c3ccc(Oc4ncc(NC(=O)Nc5cc(C(F)(F)F)ccc5-c5cccnc5)cn4)cc3)c2n1 [Example 21-37, 1-(2-{4-[5-(dimethylamino)pyrazolo[1,5-a]pyrimidin-3-yl]phenoxy}-5-pyrimidinyl)-3-[2-(3-pyridinyl)-5-(trifluoromethyl)phenyl]urea]
Second: CN(C)c1ccn2ncc(-c3ccc(Oc4ncc(NC(=O)Nc5cc(C(F)(F)F)ccc5-c5ccccc5)cn4)cc3)c2n1 [Example 21-70, 1-(2-{4-[5-(dimethylamino)pyrazolo[1,5-a]pyrimidin-3-yl]phenoxy}-5-pyrimidinyl)-3-[4-(trifluoromethyl)-2-biphenylyl]urea]
The “Percent improvement (%)” value of the first is higher: 67% for the first, 61% for the second.

Going from `CN(C)c1ccn2ncc(-c3ccc(Oc4ncc(NC(=O)Nc5cc(C(F)(F)F)ccc5-c5ccnn5C)cn4)cc3)c2n1` [Example 21-51, 1-(2-{4-[5-(dimethylamino)pyrazolo[1,5-a]pyrimidin-3-yl]phenoxy}-5-pyrimidinyl)-3-[2-(1-methyl-1H-pyrazol-5-yl)-5-(trifluoromethyl)phenyl]urea] to `Cc1cccc(-c2ccc(C(F)(F)F)cc2NC(=O)Nc2cnc(Oc3ccc(-c4cnn5ccc(N(C)C)nc45)cc3)nc2)c1` [Example 21-73, 1-(2-{4-[5-(dimethylamino)pyrazolo[1,5-a]pyrimidin-3-yl]phenoxy}-5-pyrimidinyl)-3-[3′-methyl-4-(trifluoromethyl)-2-biphenylyl]urea], the “Percent improvement (%)” value falls from 68% to 62%.

Same assay, conditions: MIA-induced model rats; tramadol 10 mg/kg subcutaneously 1 hour before measurement on day 24; Table 7

For `COc1cccc(C2(O)CCCCC2CN(C)C)c1` (stereo not shown) [Tramadol, tramadol, reference compound], the “Percent improvement (%)” value was 43%.
